Test results taken from patent US12679878B2, “CRF2 receptor agonists and their use in therapy” (SANOFI, priority 2020, dated 2026).
Read-outs that look alike come from different tables or passages of the source. Starred links: 1 amine or outer side, 2 acyl side, 3 side chain; linkers in the order of their positions; H or OH if unused. Non-standard residues stand in square brackets, D forms with d. Residues, ends and D or L forms follow the SMILES beside them. Groups on a side chain read outwards from the residue. *: point of attachment. C18 diacid = O=C(O)CCCCCCCCCCCCCCCCC(=O)*; γGlu = O=C(O)[C@H](CCC(=O)[*:2])N[*:1]; Palmitoyl = CCCCCCCCCCCCCCCC(=O)*; AEEA = NCCOCCOCC(=O)O; Aib = CC(C)(N)C(=O)O

Legend:
Type in all cases: cell-based
[1] = biological target: T1, CRF1R receptor (Homo sapiens, UniProt P34998); test: cAMP activity at anti-target CRF1R, CRF1R-overexpression CHO cell line (Example 9); details: for EC50: 0% HSA
T1 construct: host or cells: CHO-K1 clone 2
T1 sequence (P34998 24-415): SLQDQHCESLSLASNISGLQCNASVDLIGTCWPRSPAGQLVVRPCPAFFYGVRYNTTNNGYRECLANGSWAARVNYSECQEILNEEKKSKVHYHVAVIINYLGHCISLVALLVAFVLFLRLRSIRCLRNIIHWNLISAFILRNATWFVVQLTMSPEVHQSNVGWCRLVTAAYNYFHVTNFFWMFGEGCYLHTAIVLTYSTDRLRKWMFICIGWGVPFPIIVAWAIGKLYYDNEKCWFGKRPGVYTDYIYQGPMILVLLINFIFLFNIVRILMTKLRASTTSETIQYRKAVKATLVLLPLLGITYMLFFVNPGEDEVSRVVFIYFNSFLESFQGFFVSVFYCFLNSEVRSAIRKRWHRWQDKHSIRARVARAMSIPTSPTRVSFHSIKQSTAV
In short: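 cAMP accumulation was read by HTRF after 30 min at room temperature of compound treatment. Cells were cryopreserved CHO cells overexpressing CRF1R, plated at 2000/well in IBMX (2 mM)-containing HBSS/HEPES buffer with 0 or 0.1% HSA. Activity was normalized to 1000 nM UCN2 as 100%.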

[2] = test system: rat CRF2R α receptor; test: cAMP agonism at rat CRF2R α receptor in A7R5 rat aortic smooth muscle cells (Example 8); details: cAMP HTRF, A7R5 rat aortic smooth muscle cell line, 0% HSA
In short: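 Thawed cryopreserved A7R5 cells in HBSS/20 mM HEPES (0 or 0.1% HSA) with 2 mM IBMX, 2000 cells/well, were exposed to compound for 30 min at room temperature. cAMP was read by HTRF (665/620 nm ratio) after 1 h with lysis reagents. Activity was normalised to 1000 nM urocortin 2 as 100%, and EC50 was taken as the concentration giving 50% of maximal activation.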

[3] = biological target: T2, human CRF2α receptor (Homo sapiens, UniProt Q13324); test: cAMP agonism at human CRF2 α receptor in TeloHEAC cells (Example 7); details: cAMP HTRF, TeloHEAC cells stably expressing human CRF2 α
T2 construct: expressed in transfected cells; host or cells: TeloHEAC
T2 sequence (Q13324 1-411): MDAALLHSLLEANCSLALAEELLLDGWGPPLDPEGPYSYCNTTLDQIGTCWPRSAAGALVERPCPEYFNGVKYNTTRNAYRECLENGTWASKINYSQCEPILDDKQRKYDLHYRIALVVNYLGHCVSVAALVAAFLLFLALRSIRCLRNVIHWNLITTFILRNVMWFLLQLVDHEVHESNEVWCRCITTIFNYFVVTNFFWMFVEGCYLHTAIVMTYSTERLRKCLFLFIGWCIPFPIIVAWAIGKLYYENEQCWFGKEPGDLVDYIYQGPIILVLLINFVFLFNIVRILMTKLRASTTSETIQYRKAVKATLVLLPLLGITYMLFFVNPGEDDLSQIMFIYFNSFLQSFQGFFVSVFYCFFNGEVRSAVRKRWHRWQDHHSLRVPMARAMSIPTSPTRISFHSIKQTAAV
In short: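 Thawed frozen stably transfected cells in HBSS/20 mM HEPES (0% or 0.1% HSA) plus 2 mM IBMX were exposed to compound at 2000 cells/well for 30 min at room temperature. Intracellular cAMP was read by HTRF (665/620 nm ratio) after 1 h lysis; EC50 was derived with 1000 nM urocortin 2 set as 100%.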

[4] = CRF1R-overexpression CHO cell line
[5] = CRF1R-overexpression CHO cell line, read-out: Emax (%)
[6] = 0% HSA, read-out: EC50 [nM], 0% HSA

SMILES | EC50 [1, 4] [nM] | Emax [1, 5] [%] | EC50 [2] [nM] | EC50 [3, 6] [nM] | Emax ([1]; CHO) [%] | EC50 ([3]; 0.1% HSA, read-out: EC50 [nM], 0.1% HSA) [nM]
CCCCCCCCCCCCCCCC(=O)N[C@@H](CCC(=O)NCCCC[C@H](NC(=O)[C@@H](NC(=O)[C@H](CCCCN)NC(=O)[C@@H](NC(=O)[C@@H]1CCCN1C(=O)[C@@H](NC(=O)[C@H](CC(=O)O)NC(=O)[C@H](CC(C)C)NC(=O)[C@H](CO)NC(=O)[C@H](CC(C)C)NC(=O)[C@@H](NC(=O)[C@@H](N)Cc1ccccc1)[C@@H](C)O)C(C)C)[C@@H](C)O)[C@@H](C)CC)C(=O)N[C@@H](CCC(N)=O)C(=O)N[C@@H](CCCCN)C(=O)N[C@@H](CC(C)C)C(=O)N[C@@H](CC(C)C)C(=O)N[C@@H](CCCCN)C(=O)N[C@@H](CCC(N)=O)C(=O)N[C@@H](CCC(=O)O)C(=O)N[C@@H](CCCCN)C(=O)N[C@@H](CCC(N)=O)C(=O)N[C@@H](CCCCN)C(=O)N[C@@H](CCCCN)C(=O)N[C@@H](CCC(N)=O)C(=O)N[C@@H](CCCNC(=N)N)C(=O)N[C@@H](CCC(N)=O)C(=O)N[C@@H](CCCCN)C(=O)N[C@@H](C)C(=O)N[C@@H](CCCCN)C(=O)N[C@H](C(=O)N[C@@H](C)C(=O)N[C@@H](C)C(=O)N[C@@H](CCC(N)=O)C(=O)N[C@H](C(=O)N[C@@H](CC(C)C)C(=O)N[C@@H](C)C(=O)N[C@@H](CCC(N)=O)C(=O)N[C@H](C(N)=O)C(C)C)[C@@H](C)CC)[C@@H](C)O)C(=O)O [compound 8] (H-FTLSLDVPTKIK([γGlu-Palmitoyl])QKLLKQEKQKKQRQKAKTAAQILAQV-NH2; N-terminus assumed) | > 1000 | 16 | 0.11 | 0.2 | – | –
CCCCCCCCCCCCCCCC(=O)N[C@@H](CCC(=O)NCCCC[C@H](NC(=O)[C@@H](NC(=O)[C@H](CCCCN)NC(=O)[C@@H](NC(=O)[C@@H]1CCCN1C(=O)[C@@H](NC(=O)[C@H](CC(=O)O)NC(=O)[C@H](CC(C)C)NC(=O)[C@H](CO)NC(=O)[C@H](CC(C)C)NC(=O)[C@@H](NC(=O)[C@@H](N)Cc1ccccc1)[C@@H](C)O)C(C)C)[C@@H](C)O)[C@@H](C)CC)C(=O)N[C@@H](CCC(N)=O)C(=O)N[C@@H](CCCCN)C(=O)N[C@@H](CC(C)C)C(=O)N[C@@H](CC(C)C)C(=O)N[C@@H](CCCCN)C(=O)N[C@@H](CCC(N)=O)C(=O)N[C@@H](CCC(=O)O)C(=O)N[C@@H](CCCCN)C(=O)N[C@@H](CCC(N)=O)C(=O)N[C@@H](CCCCN)C(=O)N[C@@H](CCCCN)C(=O)N[C@@H](CCC(N)=O)C(=O)N[C@@H](CCCNC(=N)N)C(=O)N[C@@H](CCC(N)=O)C(=O)N[C@@H](CCCCN)C(=O)N[C@@H](C)C(=O)N[C@@H](CCCCN)C(=O)N[C@H](C(=O)N[C@@H](CC(N)=O)C(=O)N[C@@H](C)C(=O)N[C@@H](CCC(N)=O)C(=O)N[C@H](C(=O)N[C@@H](CC(C)C)C(=O)N[C@@H](C)C(=O)N[C@@H](CCC(N)=O)C(=O)N[C@H](C(N)=O)C(C)C)[C@@H](C)CC)[C@@H](C)O)C(=O)O [compound 11] (H-FTLSLDVPTKIK([γGlu-Palmitoyl])QKLLKQEKQKKQRQKAKTNAQILAQV-NH2) | > 1000 | 12.7 | 0.01 | 0.02 | – | –
CC[C@H](C)[C@H](NC(=O)[C@H](CCC(N)=O)NC(=O)[C@H](CCC(=O)O)NC(=O)[C@H](CC(C)C)NC(=O)[C@H](CC(C)C)NC(=O)[C@H](CCC(N)=O)NC(=O)[C@H](CCCCN)NC(=O)[C@H](CC(N)=O)NC(=O)[C@H](CCCCN)NC(=O)[C@H](CCC(=O)O)NC(=O)[C@H](C)NC(=O)[C@H](CCC(N)=O)NC(=O)[C@H](CCC(N)=O)NC(=O)[C@H](CCCNC(=N)N)NC(=O)[C@H](CCC(=O)O)NC(=O)[C@H](CCCCN)NC(=O)[C@H](CCCCN)NC(=O)[C@H](CCC(N)=O)NC(=O)[C@H](CCCCN)NC(=O)[C@H](CCC(N)=O)NC(=O)[C@H](CCC(N)=O)NC(=O)[C@H](CCCCN)NC(=O)[C@H](Cc1ccccc1)NC(=O)[C@H](CC(C)C)NC(=O)[C@@H](NC(=O)[C@H](CCC(N)=O)NC(=O)[C@H](CCCCNC(=O)COCCOCCNC(=O)COCCOCCNC(=O)CC[C@H](NC(=O)CCCCCCCCCCCCCCCCC(=O)O)C(=O)O)NC(=O)[C@@H](NC(=O)[C@H](CCCCN)NC(=O)[C@@H](NC(=O)[C@@H]1CCCN1C(=O)[C@@H](NC(=O)[C@H](CC(=O)O)NC(=O)[C@H](CC(C)C)NC(=O)[C@H](CO)NC(=O)[C@H](CC(C)C)NC(=O)[C@@H](NC(=O)[C@@H](N)Cc1ccccc1)[C@@H](C)O)C(C)C)[C@@H](C)O)[C@@H](C)CC)[C@@H](C)CC)C(N)=O [compound 13] (H-FTLSLDVPTKIK([AEEA-AEEA-γGlu-C18 diacid])QILFKQQKQKKERQQAEKNKQLLEQI-NH2; N-terminus assumed) | – | – | 2.5 | 0.98 | 4.3 | 64.1
CCCCCCCCCCCCCCCC(=O)N[C@@H](CCC(=O)NCCCC[C@H](NC(=O)[C@@H](NC(=O)[C@H](CCCCN)NC(=O)[C@@H](NC(=O)[C@@H]1CCCN1C(=O)[C@@H](NC(=O)[C@H](CC(=O)O)NC(=O)[C@H](CC(C)C)NC(=O)[C@H](CO)NC(=O)[C@H](CC(C)C)NC(=O)[C@@H](NC(=O)[C@@H](N)Cc1ccccc1)[C@@H](C)O)C(C)C)[C@@H](C)O)[C@@H](C)CC)C(=O)N[C@@H](CCC(N)=O)C(=O)N[C@@H](CCCCN)C(=O)N[C@@H](CC(C)C)C(=O)N[C@@H](Cc1ccccc1)C(=O)N[C@@H](CCCCN)C(=O)N[C@@H](CCC(N)=O)C(=O)N[C@@H](C)C(=O)N[C@@H](CCCCN)C(=O)N[C@@H](CCC(N)=O)C(=O)N[C@@H](CCCCN)C(=O)N[C@@H](CCCCN)C(=O)N[C@@H](CCC(N)=O)C(=O)N[C@@H](CCCNC(=N)N)C(=O)N[C@@H](CCC(N)=O)C(=O)N[C@@H](CCCCN)C(=O)N[C@@H](C)C(=O)N[C@@H](CCCCN)C(=O)N[C@H](C(=O)N[C@@H](CC(N)=O)C(=O)N[C@@H](C)C(=O)N[C@@H](CCC(N)=O)C(=O)N[C@H](C(=O)N[C@@H](CC(C)C)C(=O)N[C@@H](C)C(=O)N[C@@H](CCCNC(=N)N)C(=O)N[C@H](C(N)=O)C(C)C)[C@@H](C)CC)[C@@H](C)O)C(=O)O [compound 15] (H-FTLSLDVPTKIK([γGlu-Palmitoyl])QKLFKQAKQKKQRQKAKTNAQILARV-NH2; N-terminus assumed) | > 1000 | 7.75 | 1.38 | 0.88 | – | –
CC[C@H](C)[C@H](NC(C)=O)C(=O)N[C@H](C(=O)N[C@@H](CC(C)C)C(=O)N[C@@H](CO)C(=O)N[C@@H](CC(C)C)C(=O)N[C@@H](CC(=O)O)C(=O)N[C@@H](C(=O)N1CCC[C@H]1C(=O)N[C@H](C(=O)NCC(=O)N[C@@H](CC(C)C)C(=O)N[C@@H](CCCCNC(=O)COCCOCCNC(=O)COCCOCCNC(=O)CC[C@H](NC(=O)CCCCCCCCCCCCCCCCC(=O)O)C(=O)O)C(=O)N[C@@H](CCC(N)=O)C(=O)N[C@H](C(=O)N[C@@H](CC(C)C)C(=O)N[C@@H](CC(C)C)C(=O)N[C@@H](CCC(=O)O)C(=O)N[C@@H](CCC(N)=O)C(=O)N[C@@H](CCC(=O)O)C(=O)N[C@@H](CCCNC(=N)N)C(=O)N[C@@H](CCC(N)=O)C(=O)N[C@@H](CCCCN)C(=O)NC(C)(C)C(=O)N[C@@H](CCC(N)=O)C(=O)N[C@@H](CCCNC(=N)N)C(=O)N[C@@H](CCC(=O)O)C(=O)N[C@@H](CCC(N)=O)C(=O)N[C@@H](C)C(=O)N[C@@H](CCC(=O)O)C(=O)N[C@@H](CCCCN)C(=O)N[C@@H](CC(N)=O)C(=O)N[C@@H](CCC(=O)O)C(=O)N[C@@H](CCC(N)=O)C(=O)N[C@H](C(=O)N[C@@H](CC(C)C)C(=O)N[C@@H](CCC(=O)O)C(=O)N[C@@H](CCC(N)=O)C(=O)N[C@H](C(N)=O)C(C)C)[C@@H](C)CC)[C@@H](C)CC)[C@@H](C)CC)C(C)C)C(C)C [compound 167] (Ac-IVLSLD[dV]PIGLK([AEEA-AEEA-γGlu-C18 diacid])QILLEQERQK[Aib]QREQAEKNEQILEQV-NH2) | – | -0.46 | 76.9 | – | – | –
